# Test results: patent US20050265999A1, “Modulation of 5-HT2 receptors as a treatment for cardiovascular diseases” (Myogen, Inc., priority 2003, published 2005)
# Tests used:
# 5-HT2B = biological target: T1, 5-HT2B (Homo sapiens, UniProt P41595); test: Radioligand receptor binding assay (MDS Pharma); settings: 10 μM compound, n=2
# T1 construct: purchased MDS Pharma services 271700
# Description: (§1) Receptor binding assays. Receptor binding assays were performed by MDS Pharma services. Assays included: Adenosine A1 (cat# 200510), Adenosine A2A (cat# 200610), Adenosine A3 (cat# 200720), Adrenergic alpha 1 (cat# 203500), Imidazoline 12 central (cat# 241000), Imidazoline I2 peripheral (cat# 241100), Inositol triphosphate (cat# 242500), Phorbol Ester (cat# 264500), 5-HT 2B (cat# 271700), and 5-HT 4 (cat# 272000).
# (§2) • Summary of radioligand binding assays for 11 receptors. Data represent % inhibition of ligand binding in the presence of 10 μM 18264 (n=2).
# • Summary of radioligand binding assays for three receptors. Data represent % inhibition of ligand binding in the presence of 10 μM 20068 (n=2).
# [1] = system: primary rat neonatal cardiomyocytes; test: Immunofluorescence / morphology of cardiomyocyte hypertrophy in NRVM; type: cell-based; settings: 1 μM, 48 h
# Description: (§3) NRVM culture. For preparations of neonatal rat ventricular myocytes (NRVMs), hearts were removed from 10-20 newborn (1-2 days old) Sprague-Dawley rats. Isolated ventricles were pooled, minced and dispersed by three 20-min incubations at 37° C. in Ads buffer (116 mM NaCl, 20 mM HEPES, 10 mM NaH2PO4, 5.5 mM glucose, 5 mM KCl, 0.8 mM MgSO4, pH 7.4) containing collagenase Type II (65 units/ml, Worthington) and pancreatin (0.6 mg/ml, GibcoBRL). Dispersed cells were applied to a discontinuous gradient of 40.5% and 58.5% (v/v) Percoll (Amersham Biosciences), centrifuged, and myocytes collected from the interface layer. Myocyte preparations were pre-plated in Dulbecco's modified Eagle's medium (DMEM, Cellgro), supplemented with 10% (v/v) fetal bovine serum (FBS, HyClone), 4 mM L-glutamine and 1% penicillin/streptomycin for 1 hour at 37° C. to reduce fibroblast contamination, then plated at a density of 2.5×10^5 cells per well on 6-well tissue culture plates (or 10,000 cells/well on 96-well tissue culture plates) coated with a 0.2% (w/v) gelatin solution. After 24 hours in culture, myocyte preparations were transferred to serum-free maintenance medium (DMEM supplemented with 0.1% (v/v) Nutridoma (Roche), L-glutamine and penicillin/streptomycin). Where indicated, NRVM were treated with test compounds for a period of 48 h. […]
# [2] = system: neonatal rat ventricular myocytes (NRVM); test: ANF secretion by competitive ELISA in NRVM; type: cell-based; settings: NRVM stimulated with compound alone
# Description: as §3, with “solution.” for “solution. After 24 hours in culture, myocyte preparations were transferred to serum-free maintenance medium (DMEM supplemented with 0.1% (v/v) Nutridoma (Roche), L-glutamine and penicillin/streptomycin). Where indicated, NRVM were treated with test compounds for a period of 48 h.”
# Hypertrophy and toxicity assays. Primary hypertrophy endpoints for NRVM included quantitation of: ANF secretion, total cellular protein and cell volume. ANF in media supernatants was quantitated by competitive ELISA using a monoclonal anti-ANF antibody (Biodesign) and a biotinylated ANF peptide (Phoenix Peptide). Total cellular protein was quantitated by standard Coomassie dye-binding assay; cells were lysed in protein assay reagent (BioRad) and absorbance at A595 was measured after 1 hour. […] After recovery by centrifugation, cell pellets were washed in PBS, resuspended in 10 ml IsoFlow electrolyte solution (Beckman-Coulter) and analyzed with a Z2 Coulter Particle Counter and Size Analyzer (Beckman-Coulter). Cytotoxicity was quantitated by measuring release of adenylate kinase (AK) from cultured NRVM into culture medium (ToxiLight kit, Cambrex).
# Adenosine A3 = biological target: T2, Adenosine A3 (Homo sapiens, UniProt P0DMS8); test: Radioligand receptor binding assay (MDS Pharma); settings: 10 μM compound, n=2
# T2 construct: purchased MDS Pharma services 200720
# T2 sequence (P0DMS8 1-318): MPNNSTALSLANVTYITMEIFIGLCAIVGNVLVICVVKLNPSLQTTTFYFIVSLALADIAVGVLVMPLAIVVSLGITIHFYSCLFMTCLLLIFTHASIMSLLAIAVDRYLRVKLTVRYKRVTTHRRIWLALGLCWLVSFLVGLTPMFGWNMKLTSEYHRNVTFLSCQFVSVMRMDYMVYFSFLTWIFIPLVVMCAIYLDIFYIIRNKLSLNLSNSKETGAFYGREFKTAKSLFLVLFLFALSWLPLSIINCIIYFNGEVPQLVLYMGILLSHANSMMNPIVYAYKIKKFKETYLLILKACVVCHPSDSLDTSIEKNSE
# Description: as §1, §2
# 5-HT4 = biological target: T3, 5-HT4 (Cavia porcellus, UniProt O70528); test: Radioligand receptor binding assay (MDS Pharma)
# T3 construct: purchased MDS Pharma services 272000
# Description: as §1, §2
# Phorbol Ester = test: Radioligand receptor binding assay (MDS Pharma); settings: 10 μM compound, n=2
# Description: as §1, §2
# beta myosin heavy chain = test: Beta myosin heavy chain protein quantitation by cytoblot in NRVM; type: cell-based, rat; settings: 1 μM, 48 h
# Description: Beta myosin heavy chain protein quantitation by cytoblot. NRVM were plated overnight in 96-well plates. The next day, medium was replaced with serum-free maintenance medium for 4 hours, and test compounds added. Forty-eight hours later, wells were washed twice with […] PBS, aspirating between washes. Cells were fixed by adding […] methanol for 30 min. Methanol was aspirated and wells washed twice with […] PBS. Next, […] blocking solution (PBS+1% BSA) was added for 1 hr at room temperature. Blocking solution was aspirated and […] primary antibody solution added (β-myosin heavy chain hybridoma supernatant+1% BSA) for 1 hr at room temperature. Primary antibody solution was removed and wells washed three times with […] PBS+1% BSA. Wash was aspirated and […] secondary antibody solution added (1:500 dilution of goat […] HRP conjugate in PBS+1% BSA; Southern Biotech #4050-05) for 1 hr at room temperature. Secondary antibody solution was removed and wells washed three times with […] PBS. Wash was aspirated and […] luminol solution added (Pierce #34080). Plates were read in a 96-well luminometer (Packard Fusion).
# [3] = system: neonatal rat ventricular myocytes (NRVM); test: Affymetrix gene expression screening of NRVM; type: cell-based; design: dose or concentration left out as unconfirmed
# Excerpt: Affymetrix screening. RNA was extracted from unstimulated NRVM and hypertrophic NRVM exposed to compound 18264 […] (Trizol Reagent, GibcoBRL). RNA samples were converted to biotin-labeled cRNA and hybridized to Rat expression arrays (Affymetrix GeneChip). Arrays were then washed, scanned and quantitated as per manufacturer's instructions.
# T3 sequence (O70528 whole entry): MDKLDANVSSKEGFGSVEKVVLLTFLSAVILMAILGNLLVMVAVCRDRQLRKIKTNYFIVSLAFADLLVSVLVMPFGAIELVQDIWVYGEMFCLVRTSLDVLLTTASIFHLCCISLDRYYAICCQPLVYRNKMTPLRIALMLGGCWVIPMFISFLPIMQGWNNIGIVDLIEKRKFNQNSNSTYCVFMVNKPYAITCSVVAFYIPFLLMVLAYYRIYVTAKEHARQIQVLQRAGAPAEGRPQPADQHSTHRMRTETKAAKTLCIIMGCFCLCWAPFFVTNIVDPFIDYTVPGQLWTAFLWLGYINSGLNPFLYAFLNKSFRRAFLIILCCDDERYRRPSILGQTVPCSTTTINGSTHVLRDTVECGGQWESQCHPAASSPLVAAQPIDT
# T1 sequence (P41595 whole entry): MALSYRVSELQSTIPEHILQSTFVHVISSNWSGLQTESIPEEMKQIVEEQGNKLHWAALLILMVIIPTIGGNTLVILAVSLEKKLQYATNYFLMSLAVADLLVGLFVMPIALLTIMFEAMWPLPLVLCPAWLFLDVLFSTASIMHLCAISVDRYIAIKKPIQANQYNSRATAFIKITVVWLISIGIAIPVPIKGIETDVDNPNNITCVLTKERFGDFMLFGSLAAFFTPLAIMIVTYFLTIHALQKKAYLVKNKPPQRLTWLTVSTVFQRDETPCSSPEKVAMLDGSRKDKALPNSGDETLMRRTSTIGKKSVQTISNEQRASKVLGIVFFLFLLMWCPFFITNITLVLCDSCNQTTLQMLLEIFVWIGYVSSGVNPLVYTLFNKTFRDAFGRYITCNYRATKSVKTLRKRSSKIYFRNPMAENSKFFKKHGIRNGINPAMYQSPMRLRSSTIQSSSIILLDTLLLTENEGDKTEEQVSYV
smiles,measurement,setting,value
"Cc1c(-c2ccccc2)nc2sc3c(c2c1N)CCCC3 [Compound 18264, 3-Methyl-2-phenyl-5,6,7,8-tetrahydro-benzo[4,5]thieno[2,3-b]pyridin-4-ylamine]",inhibition at 10 µM,5-HT2B,97%
same,"induction of myocyte hypertrophy (enlargement, sarcomere assembly)",[1],extraordinarily potent inducer of myocyte hypertrophy
same,ANF expression/secretion,[2],up-regulated ANF expression
same,inhibition at 10 µM,Adenosine A3,24%
same,inhibition at 10 µM,"5-HT4; 10 μM compound, n=2",17%
same,binding (in words),"5-HT4; radioligand binding, 10 μM",No significant binding
same,% Inhibition of Binding,Phorbol Ester,2%
same,expression of fetal beta isoform of myosin heavy chain,beta myosin heavy chain,significantly up-regulated
same,-Fold upreg. of Alpha skeletal actin,[3],2.1 fold
same,-Fold upreg. of Atrial natriuretic factor,[3],2.3 fold
same,-Fold upreg. of Brain natriuretic factor,[3],4.1 fold
same,"-Fold upreg. of Myosin heavy chain, embryonic",[3],29 fold
